In patent publication US10927139B2, “Chemically cleavable group” (Tagworks Pharmaceuticals B.V., priority 2012, dated 2021):
Like-named read-outs stand apart in the source and are kept apart here.

Key:
[1] = Testing the stability of a TCO compound under chemical conditions (HPLC-MS/PDA, GC-MS); type: physicochemical
Description: (§1) The feasibility to use the TCO group as a protective group in chemistry was studied by testing the stability of a range of TCO derivatives as model compounds under various conditions, and following the deprotection upon reaction with a tetrazine derivative under these conditions.
Typical Example for Testing the Stability of a TCO Compound
The TCO stock solution (10 μL 25 mM; 2.5*10^−7 mol) was added to a solution of the specific condition (100 μL). The mixture was stirred at the specific condition for a certain amount of time, and then the fate of the TCO compound was monitored by HPLC-MS/PDA analysis and/or GC-MS analysis, and an estimation of its stability was made.
(§2) A) in acetonitrile with 5 equivalents of pyridine per TCO at 20° C.
(§3) B) in acetonitrile with 5 equivalents of DIPEA per TCO at 20° C.
(§4) C) in acetonitrile with 5 equivalents of piperidine per TCO at 20° C.
(§5) D) in acetonitrile with 5 equivalents of n-butylamine per TCO at 20° C.
(§6) E) in acetonitrile with 5 equivalents of 2-mercaptoethanol per TCO at 20° C.
(§7) F) in tetrahydrofuran with 5 equivalents of triphenylphosphine per TCO at 20° C.
(§8) G) in acetonitrile with 5 equivalents of DCC per TCO at 20° C.
(§9) H) in acetonitrile with 5 equivalents of PyBOP per TCO at 20° C.
(§10) I) in acetonitrile with 1 v % of formic acid at 20° C.
(§11) J) in chloroform at 20° C.
(§12) K) in chloroform with 1 v % of formic acid at 20° C.
(§13) L) in chloroform with 1 v % of trifluoroacetic acid at 20° C.
(§14) M) in chloroform with 10 v % of trifluoroacetic acid at 20° C.
(§15) N) in chloroform with 33 v % of trifluoroacetic acid at 20° C.
(§16) Z) in 25% acetonitrile in water at 20° C.

[2] = Testing the feasibility of the deprotection of TCO compounds upon reaction with tetrazine
Description: as §1
Typical Example for Testing the Feasibility of the Deprotection
The TCO stock solution (10 μL 25 mM in acetonitrile; 2.5*10^−7 mol) was added to a solution of the specific condition (100 μL). A solution of 3,6-dimethyl-1,2,4,5-tetrazine (8, 20 μL 25 mM in acetonitrile; 5.0*10^−7 mol) was added, and the mixture was stirred at the specific condition for a certain amount of time. The reaction was monitored by HPLC-MS/PDA analysis and/or GC-MS analysis, and the percentage of deprotection was estimated.
as §2, §3, §4, §5, §6, §7, §8, §9, §10, §11, §12, §13, §14, §15, §16

[3] = as above; conditions: 20° C.
[4] = Deprotection of N-TCO protective group (Example 6, 1H-NMR); conditions: chloroform with trifluoroacetic acid; 3,6-dimethyl-1,2,4,5-tetrazine (8); 20° C. for 40 min
Description: (N-TCO-6-aminohexyl) phenylcarbamate (5.61 mg; 1.44*10^−5 mol) was dissolved in chloroform (0.6 mL) and trifluoroacetic acid (20 mg; 1.75*10^−4 mol) was added. Subsequently, a solution of 3,6-dimethyl-1,2,4,5-tetrazine (8, 1.90 mg; 1.73*10^−5 mol) in chloroform (0.1 mL) was added. The pink, homogeneous mixture was stirred at 20° C. for 40 min. According to ^1H-NMR, more than 95% was deprotected. The reaction mixture was washed with aqueous potassium carbonate (0.5 mL 0.4 M), dried over sodium sulfate, filtered, and evaporated to dryness. The crude product was purified by preparative RP-HPLC and isolated by lyophilization to yield a white powder (2.31 mg; 68%). ^1H-NMR (DMSO-d6): δ=9.60 (s, 1H), 7.46 (d, 2H), 7.26 (t, 2H), 6.97 (t, 1H), 4.06 (t, 2H), 2.60 (t, 2H), 1.62 (m, 2H), 1.33 (m, 6H) ppm. ^13C-NMR (CDCl3): δ=153.6, 139.2, 128.7, 122.2, 118.1, 73.8, 64.1, 41.5, 33.3, 28.6, 26.1, 25.4 ppm. FT-IR (ATR): v=3343, 2939, 1707, 1542, 1448, 693 cm^−1. LC-MS: m/z=+237.17 [M+H]+(calcd 236.15 for C13H20N2O2).

[5] = TCO-doxorubicin with uncoated and unmodified beads (comparison); conditions: same conditions
[6] = Binding of TCO-protected doxorubicin to beads coated with BSA-tetrazine and doxorubicin release (HPLC)
Description: Tetrazine functionalization of a BSA-coated particle has been described in J. Nucl. Med. 2013, 54, 1989-1995. Briefly, a solution of BSA (bovine serum albumin; 0.7 mg) in PBS was mixed with a 10 mg/mL solution of a bis-pyridyl-tetrazine-NHS derivative in DMF (35 μL, 30 eq. with respect to BSA) and the pH was adjusted to 9.0 with 1 M sodium carbonate buffer. The solution (125 μL total) was incubated at room temperature for 30 min then the unreacted tetrazine was removed from the solution by using a Zeba desalting spin column (7 kDa MW cut-off) pre-washed with PBS. UV measurements confirmed the presence of 12 tetrazine moieties per BSA molecule.
The eluate containing BSA-tetrazine in PBS was added to a 350 μL suspension of polystyrene beads (Polybeads, 0.5 μm, Polysciences) in H2O and the resulting suspension was incubated at +4° C. for 1 h on an end-over-end rotating mixer (10 rpm). After incubation, the suspension of beads coated with BSA-tetrazine was centrifuged at 12,000 rpm for 4 min. The supernatant was carefully removed and the pellet was resuspended in 1.5 mL PBS by using a tip sonicator at low power (Sonics VibraCell, 4×5 sec pulses, 40% of power). The centrifuging-resuspension cycle was repeated 2 times, after which the bead pellet was resuspended in 200 μL PBS and reacted with 7 nmol of TCO-protected doxorubicin (TCO-3-Doxorubin, 1 mM in DMSO).
After 5 min incubation at 37° C. in a thermomixer (350 rpm), the beads were removed by centrifugation and the supernatant was analyzed by HPLC on an Agilent Techologies system (1100 series) equipped with a fluorescence detector with λhex=485 nm and λem=590 nm. The sample was loaded on an Eclipse XDB-C18 column (5 μm, 4.6×150 mm^2, Agilent) which was eluted isocratically with 30% (v/v) acetonitrile in H2O containing 0.1% TFA (v/v) at 1 mL/min. HPLC analysis of the supernatant confirmed that ca. 75% of TCO-doxorubicin was bound to the beads.
The bead pellet was resuspended in 1.5 mL PBS and centrifuged twice to eliminate unbound TCO-doxorubicin. Subsequently, the beads were resuspended in 400 μL PBS and incubated at 37° C. At various times, aliquots of the supernatant were analyzed by HPLC. The chromatographic profiles (FIG. 2) show release of free doxorubicin (Rt=6.2 min) from the beads with time (>45% after 3 h; complete within 24 h).

streptavidin beads = biological target: T1, streptavidin beads (Streptomyces avidinii, UniProt P22629); test: Capture of 125I-Rtx-TCO-biotin with streptavidin beads (gamma counting); type: binding; conditions: 1 hour incubation
T1 construct: purchased Invitrogen
T1 sequence (P22629 25-183): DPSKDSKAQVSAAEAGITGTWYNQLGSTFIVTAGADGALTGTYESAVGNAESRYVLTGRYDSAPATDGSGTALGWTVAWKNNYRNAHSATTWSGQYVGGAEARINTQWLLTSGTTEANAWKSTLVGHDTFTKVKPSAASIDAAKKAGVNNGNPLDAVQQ
Description: Rituximab (Rtx, 100 μg in 200 μL PBS, Roche) was radiolabeled with ^125I (Perkin Elmer) in a Pierce iodination tube (5 min incubation at room temperature) followed by size exclusion (SEC) purification (2 times, 0.5 mL Zeba desalting spin cartridge, 40 kDa MWCO, Pierce). Subsequently, non-radioactive Rtx was added to the solution (making 1 mg total Rtx), the pH was adjusted to 9 with 1 M sodium carbonate buffer and TCO-2-Biotin (3 eq., 5 mg/mL in DMSO) was added. The reaction mixture (200 μL) was incubated for 2 hours at 37° C. (350 rpm), purified once by SEC cartridge and then analyzed by SEC HPLC on an Agilent 1200 system equipped with a Gaby radioactive detector and UV detector and connected to a BioSep-SEC-S-3000 column (300×7.8 mm, 5 μm particles, Phenomenex) which was eluted at 1 mL/min with 0.1 M phosphate 0.15 M NaCl pH 6.8.
Subsequently, various amounts of ^125I-Rtx-TCO-biotin were combined with 1 mg streptavidin beads (Dynabeads MyOne Streptavidin Cl, Invitrogen) in 200 μL PBS and incubated for 1 hour at room temperature on a roller bench, to avoid bead settling. After incubation, the supernatants were removed and the beads were washed extensively with PBS.

[7] = 0.1 M HCOOH buffer, pH = 2.0 for 2 day, 20° C.
[8] = 0.1 M NH3 buffer, pH = 11 for 5 day, 20° C.
[9] = 0.1 M NH4OAc buffer, pH = 7.0 for 5 day, 20° C.
[10] = 0.1 M NH4OAc buffer, pH = 8.0 for 8 day, 20° C.
[11] = 0.1 M NH4OAc buffer, pH = 10.0 for 8 day, 20° C.
[12] = 10% MeCN in H2O at 70° C. for 5 day
[13] = with 5 eq. of DIPEA in MeCN for 16 h, 20° C.
[14] = with 5 eq. of PyBOP in MeCN for 16 h, 20° C.

For `COc1cc(COC(=O)NC2CC/C=C/CCC2N)cc(OC)c1OC` (stereo not drawn), the “Stability of TCO” value [1, 7] was “stable”, the “Stability of TCO: cyclization” value [1, 8] was less than 5% and the “Stability of TCO” value [1, 9] was “stable”. For the same molecule, the “Stability of TCO” value [1, 10] was “stable”, the “Stability of TCO” value ([1]; 0.1 M NH4OAc buffer, pH = 9.0 for 8 day, 20° C.) was “stable” and the “Stability of TCO” value [1, 11] was “stable”. The “Stability of TCO: cyclization” value [1, 12] was less than 5%, the “Stability of TCO” value ([1]; 10% MeCN in H2O for 5 day, 20° C.) was “stable” and the “Deprotection (%)” value [2, 7] was 0%. For the same molecule, the “Deprotection (%)” value [2, 8] was 87%, the “Deprotection (%)” value [2, 9] was 0% and the “Deprotection (%)” value [2, 10] was 0%. The “Deprotection (%)” value [2, 11] was 81%, the “Deprotection (%)” value [2, 12] was 50% and the “Deprotection (%)” value ([3]; 0.1 M NH4OAc buffer, pH = 9.0 for 8 day) was 25%. The “Deprotection (%)” value ([3]; 10% MeCN in H2O for 5 day) was 0%.
`NC1CC/C=C/CCC1NC(=O)Oc1ccccc1` (stereo not drawn) showed a half-life ([1]; 0.1 M NH4OAc buffer, pH = 7.0, 20° C., read-out: Stability of TCO, t1/2) of 80 h, a half-life ([1]; 0.1 M NH4OAc buffer, pH = 8.0, 20° C., read-out: Stability of TCO, t1/2) of 17 h and a half-life at 2.3 mM ([1]; 0.1 M NH4OAc buffer, pH = 9.0, 20° C., read-out: Stability of TCO, t1/2) of 5.3 h. The “Stability of TCO: cyclization” value [1, 13] was 6.7%, the “Stability of TCO: cyclization” value ([1]; with 5 eq. of HCOOH in MeCN for 16 h, 20° C.) was 1.9% and the “Stability of TCO: cyclization” value [1, 14] was 5.9%. For the same molecule, the “Stability of TCO: cyclization” value ([1]; with 5 eq. of pyridine in MeCN for 16 h, 20° C.) was 2.6%, the “Deprotection (%)” value [2, 13] was 98.8% and the “Deprotection (%)” value [2, 14] was 24.4%. The “Deprotection (%)” value ([3]; with 5 eq. of HCOOH in MeCN for 16 h) was 33.9% and the “Deprotection (%)” value ([3]; with 5 eq. of pyridine in MeCN for 16 h) was 71.7%.
For `O=C(Nc1ccccc1)OCCCCCCNC(=O)OC1/C=C/CCCCC1` (stereo not drawn) [(N-TCO-6-aminohexyl) phenylcarbamate], the “deprotected according to 1H-NMR” value [4] was “more than 95%”.
With `COc1cccc2c1C(=O)c1c(O)c3c(c(O)c1C2=O)C[C@@](O)(C(=O)CO)C[C@@H]3O[C@H]1CC(NC(=O)OCc2ccc(OC(=O)N[C@@H]3CC/C=C/CC[C@@H]3N)cc2)[C@H](O)C(C)O1` (stereo partly drawn) [TCO-3-Doxorubicin] the “non-specific proDox adsorption on the bead surface” value [5] was greater than 95%, the “TCO-doxorubicin bound to the beads” value ([6]; BSA-tetrazine coated beads, 5 min incubation at 37° C., HPLC of supernatant) was “ca. 75%” and the “time to complete release of free doxorubicin from the beads” value ([6]; PBS, 37° C.) was no more than 24 h. For the same molecule, the “release of free doxorubicin from the beads” value ([6]; PBS, 37° C., after 3 h) was greater than 45%.
In the case of “^125I-Rtx: Rituximab (Rtx, Roche) radiolabeled with 125I”, the “radioactivity bound to streptavidin beads” value (streptavidin beads) is reported as “almost no radioactivity was bound”.
